Test results as given in patent US7888355B2, “Compositions and methods for inhibiting growth and metastasis of melanoma” (Burnham Institute for Medical Research, priority 2007, dated 2011).
Read-outs that look alike come from different tables or passages of the source.

Experiments:
[1] = test system: human diploid fibroblasts (IMR90); test: Toxicity on human diploid fibroblasts; type: cell-based
Protocol: (§1) Characterization of CSL and AIGA effects on mouse melanoma cells. The structures of AIGA and CSL are depicted in FIGS. 1a and 1b. AIGA was tested for cytotoxicity at concentrations ranging between 0.1 and 2 μM, whereas CSL was used at a concentration of 0.01 to 0.3 μM. SW1 cells or normal melanocytes were seeded on 96 well plates and 24 h late, cells were treated with the indicated concentrations of ATF2 50-100 peptide, AIGA, or CSL for 20 h. ATF2 50-100 peptide (cloned in mammalian expression vector in frame with penetratin was transfected with the aid of lipofectamine) was used as a positive control. ATP levels were used as an indicator of cell viability and were measured using the ATPLITE ATP detection assay kit. The number of surviving cells upon AIGA treatment was normalized to the number of surviving cells under the control treatment, and the normalized number was designated as the “% Viability.” Results shown in FIGS. 1c-1f represent 3 experiments. Treatment of SW1 melanoma cells with 1 μM of AIGA reduced the viability of melanoma cells to 10%, (FIG. 1c). Treatment of the SW1 cells with 0.05 μM of CSL reduced the viability of melanoma cells to 50%, and 0.1 μM reduced it to 10% (FIG. 1d). […] Normal melanocytes and fibroblasts were used as a control.

SW1 cells = test: cells; type: cell-based, mouse; details: for effect of JNK inhibitor SP600125 on compound-induced cell death: 30-minute pretreatment with SP600125 (10 μM), then compound 20 h
Protocol: Cell lines. Mouse melanoma (SW1) and human melanoma (LU1205) cells were maintained in DMEM supplemented with 10% FBS, L-glutamine and antibiotics. The human melanoma cell lines MEWO and WM115 were maintained in RPMI supplemented with 10% FBS and antibiotics. Primary mouse melanocytes were cultured in F-12 media supplemented with 10% FBS, antibiotics, IBMX (isobuthyl-methylxantine), bovine pituitary extract, and TPA.
Mitochondrial activity and apoptosis. Cells were exposed to the chemicals for 12-48 hours as indicated in Results. To measure changes in mitochondrial activity reflective of general cell viability, the ATPLITE ATP detection assay was used according to the manufacturer's recommendations (Perkin Elmer). Apoptosis analysis was performed by flow cytometry of PI-stained cells. The percentage of cells to the left of the diploid G0/1 peak, characteristic of hypodiploid cells that have partially lost DNA, was calculated as percentage of apoptotic cells (Bhoumik et al., PNAS 101:4222-7, 2004). Analysis of changes in Caspase 8 expression pattern was performed using immunoblot analysis. […]
as §1
Thus, the two compounds were evaluated to determine if they require JNK activity for their effects on melanoma cells. To this end, the ability of AIGA or CSL to affect the viability of melanoma cells in the presence of a JNK inhibitor was tested. SW1 cells, with or without a 30-minute pretreatment with the JNK inhibitor SP600125 (10 μM), were contacted with AIGA or CSL at the indicated concentrations for 20 h. ATP levels were used to measure the cell viability using the ATPLITE kit. The number of surviving cells upon AIGA or CSL treatment was normalized to the number of surviving cells under the control treatment, and the normalized number was designated as the “% Viability.” Shown are representative results from 2 experiments. […] Of note, inhibition of JNK activity was more pronounced at lower concentrations of CSL compared with AIGA. […] To assess whether these compounds affect JNK activity, changes in JNK phosphorylation on residues 183/185, which are required for its kinase activity, were monitored. Western blot analysis for JNK phosphorylation on residues 183/185 was performed on protein extracts that were prepared from cells treated with AIGA at concentrations of 0.5 μM, 1.0 μM, and 2.0 μM and a control with no AIGA treatment. Duplicate samples were treated with JNK inhibitor (SP600125). Total level of JNK was analyzed in parallel. […]

phosphorylation of c-Jun = test: Western blot for c-Jun phosphorylation in SW1 cells; type: cell-based, mouse; details: AIGA 0.5 or 2.0 μM, CSL 0.5 or 1.0 μM, 20 h
Protocol: Immunoblot analysis. Proteins prepared from cells at the indicated time points using RIPA buffer and 75 μg were separated on SDS-PAGE followed by immunoblot analysis using the antibodies indicated. Antibodies used were as follows: anti-JNK (Santa Cruz), phospho-JNK (Promega Corp.; Madison, Wis.), phospho c-Jun (Cell Signaling Technology, Inc.; Danvers, Mass.), c-Jun (Santa Cruz Biotechnology, Inc.; Santa Cruz, Calif.) and Caspase 8 (BD Biosciences; San Jose, Calif.).
The activation of JNK by both compounds was confirmed upon analysis of its substrate c-Jun. SW1 cells were pretreated with the JNK inhibitor SP600125 followed by addition of AIGA (0.5 μM or 2.0 μM) or CSL (0.5 μM or 1.0 μM) for 20 h. Total protein extracts were used to determine the phosphorylation of c-Jun.

[2] = test system: NF-κB transcriptional activity; test: 2-NFκ-B-luciferase reporter assay in SW1 cells; type: cell-based, mouse; details: 8 h
Protocol: Constructs and inhibitors. An ATF2 peptide (aa 51-100) was cloned into HA-tagged pcDNA3 vector as previously described (Bhoumik et al., Cancer Res 64:8222-30, 2004). 5×Jun2tk-Luc (marker for ATF2 transcriptional activities), 5×TRE-tk-Luc (marker for AP1/c-Jun transcriptional activities) and 2×NF-B-Luc were previously described (Bhoumik et al., J Clin Invest 110:643-50, 2002). Pharmacological inhibitor of JNK (SP600125) was purchased (EMD biosciences) and added (5 μM) to cultured cells as indicated in Results.
Transcriptional analysis. Transient transfection of different reporter constructs into melanoma cells was performed using LIPOFECTAMINE PLUS transfection reagent (Invitrogen). Luciferase activity was determined as previously described (Bhoumik et al., PNAS 101:4222-7, 2004).
To assess whether CSL may affect the transcriptional activities of genes other than ATF2 and c-Jun, possible changes in transcriptional activities of NF-κB were monitored. Transcriptional activation of NFκ-B was assessed using the 2-NFκ-B-luciferase assay. Briefly, SW1 cells were transfected with the 2-NFκ-B-luciferase plasmid and 24 h later, cells were treated with the indicated concentrations of AIGA or CSL for 8 h before proteins were prepared and level of luciferase activity was measured. ATF250-100 peptide was used as a positive control. Data shown represent results from 2 experiments. […]

SMILES	toxic effect on human diploid fibroblasts (IMR90) [1]	effect of JNK inhibitor SP600125 on compound-induced cell death (SW1 cells)	viability at 1 µM (SW1 cells; Mus musculus, 20 h, read-out: % Viability of SW1 melanoma cells) [%]	c-Jun phosphorylation (phosphorylation of c-Jun)	NF-κB transcriptional activity [2]	toxic effect on human diploid fibroblasts (IMR90) ([1]; data not shown)	viability at 0.05 µM (SW1 cells; Mus musculus, 0.05 μM, 20 h, read-out: % Viability of SW1 melanoma cells) [%]	viability at 0.1 µM (SW1 cells; Mus musculus, 0.1 μM, 20 h, read-out: % Viability of SW1 melanoma cells) [%]	EC50 (SW1 cells; Mus musculus, numeric EC50 cells of the column, read-out: Activity or EC50 (μM) in SW1 cells) [µM]
CC(=O)Oc1c2c(c(CC=C(C)C)c3c1C(=O)C1=C[C@@H]4CC5C(C)(C)OC(C/C=C(\C)C(=O)O)(C4=O)[C@@]15O3)OC(C)(CCC=C(C)C)C=C2 (stereo partly drawn) [AIGA, Acetyl isogambogic acid]	Neither CSL nor AIGA elicited toxic effect	attenuated the ability of AIGA or CSL to elicit the cell death	10	efficiently induced c-Jun phosphorylation	dose-dependent inhibition				
CC1=C(O)C(=O)C=C2C1=CC=C1[C@@]2(C)CC[C@@]2(C)[C@@H]3C[C@](C)(C(=O)O)CC[C@]3(C)CC[C@]12C [Celastrol]		attenuated the ability of AIGA or CSL to elicit the cell death		efficiently induced c-Jun phosphorylation, with CSL being more potent	dose-dependent inhibition	Neither CSL nor AIGA elicited toxic effect	50	10	~0.1
